Marks after values point to notes of the source that are not given here.

The values that follow come from patent US20030022826A1, “Use of synthetic peptides to induce tolerance to pathogenic T and B cell epitopes of autoantigens or infectious agents” (priority 1987, published 2003).

Assay [1] deals with Th-B peptide, T1-SP10IIIB. Nature of the assay: Endpoint ELISA anti-peptide antibody titers in chimpanzees immunized with HIV env synthetic peptides. The assay is classed as in vivo, chimpanzee. The settings on record: for immunogenicity in chimpanzees (antibody response): low (0.1 mg/kg) or high (0.5 mg/kg) doses in IFA. The method, then:
Immunizations: For goats, 3 mg of peptide were injected intramuscularly in each gluteal region in complete Freund's adjuvant (CFA) (1st dose), then incomplete Freund's adjuvant (IFA) (subsequent doses). […]
When neither peptide design induced neutralizing anti-HIVIIIB antibodies, the peptide doses were increased to approximately 0.5 mg/kg (30 mg/animal) and the right-hand side neutralizing sequence of HIVIIIB gp120 V3 loop (the (A) region) (Hart et al, Proc. Natl. Acad. Sci. USA 88:9448; Rusche et al Proc. Natl. Acad. Sci. USA 85:3198)) (Table 8) was added to the Th-B peptide to enhance the ability of this peptide to induce anti-HIVIIIB neutralizing antibodies. After 3 monthly injections with either ˜0.5 mg/kg (30 mg) Th-B or F-Th-B peptide, the animals were rested for 6 months, and then reimmunized with either F-Th-B or Th-B with sequences from HIVIIIB, or with the Th-B peptide containing HIV env gp120 V3 sequences from the HIVMN isolate.
Background: ELISA stands for enzyme-linked immunosorbent assay.

Assay [2] concerns Th-B peptide, T1-SP10IIIB(A). Description: PBMC 3H-thymidine incorporation response to HIV Th-B peptide in immunized chimpanzees. Format: in vivo, chimpanzee. The settings on record: 7 day tritiated thymidine incorporation assays. An excerpt:
Acpm=experimental cpm—control cpm.
For orientation: Dividing cells build labelled thymidine or BrdU into new DNA.

A further assay has as its system HIVIIIB. Description: Anti-HIVIIIB neutralizing antibodies in immunized goats (reverse transcriptase inhibition). Format: in vivo, HIV. The settings on record: 3 mg, CFA then IFA, after the fourth immunization. The method, then:
FIG. 15. […] Goat 102A was immunized with 3 mg of the F-Th-B peptide, F-T1-SP10IIIB(A) and goat 104A was immunized with the HIVIIIB Th-B peptide, T1-SP10IIIB. Immunizations were in CFA (first dose) and IFA (doses 2-4). Neutralizing titers are titers at which reverse transcriptase production was inhibited by 90% or greater.
Immunizations: For goats, 3 mg of peptide were injected intramuscularly in each gluteal region in complete Freund's adjuvant (CFA) (1st dose), then incomplete Freund's adjuvant (IFA) (subsequent doses). For immunization of chimpanzees, varying doses of peptides were injected IM in IFA in a total volume of 4 cc, with 1 cc injected into right and left upper arms and thighs.
(§1) HIV Neutralization Assays: The ability of chimpanzee or goat serum antibodies to neutralize HIV was determined in syncytium inhibition assay and reverse transcriptase inhibition assay as previously described (Palker et al, J. Immunol. 142:3612 (1989); Palker et al, Proc. Natl. Acad. Sci. USA 85:1932 (1988)). Sera were heat inactivated (30 min, 56° C.) prior to each assay.

For assay [3], the system named is HIV LAI/IIIB. Nature of the assay: Syncytium inhibition assay with sera of immunized chimpanzees, HIV LAI/IIIB. Format: in vivo. Here is the method:
as §1

The subject of assay [4] is HIV MN. Nature of the assay: Syncytium inhibition assay with sera of immunized chimpanzees, HIV MN. Format: in vivo. Here is the method: as §1
Assay [5] relates to HIV LAI/IIIB. Nature of the assay: Reverse transcriptase inhibition assay with sera of immunized chimpanzees, HIV LAI/IIIB. The assay is classed as in vivo. The method, then: as §1
Assay [6] has as its system HIV MN. Description: Reverse transcriptase inhibition assay with sera of immunized chimpanzees, HIV MN. Format: in vivo. Here is the method: as §1
The next assay has as its system JY B cells. Nature of the assay: Peptide entry into cells, intracytoplasmic fluorescence of acetone-fixed cells. The assay is classed as cell-based, human. The note with it: for % Intracytoplasmic Positive: peptide 10 μg/ml, 21 hours at 37 degrees C. The method, then: Cells were incubated as descirbed in Table 13. After 21 hours at 37 degrees C., cytocentrifuge preparations of cells were prepared, acetone fixed, and reacted either with control mab P3x63 AgS or with anti-qp120 mab 0.5beta. Slides were read for either faint or bright intracytoplasmic fluoresence on a fluoresence microscope.

The next assay relates to human JY B cells. Description: Peptide binding to human cells, flow cytometry with anti-gp120 mab 0.5beta. The note with it: mean channel fluoresence, peptide 10 ug/ml. The assay is classed as cell-based. The method, then:
Anti-gp120 momoclonal antibody was 0.5beta from the NIAID AIDS Research and Reference Reagent Program (Matsushita et al J. Virol. 62:2107, 1988). […] The amount of fluoresence was determined on a flow cytometer and fluoresence brightness was expressed as MFC=mean channel fluoresence.

[7] abbreviates: chimpanzee 1045 serum, Month 19, prior F-Th-B(IIIB).
[8] abbreviates: chimpanzee 1045 serum, Month 20, prior F-Th-B(IIIB).
Setting [9] is: chimpanzee 1070 serum, Month 18, prior F-Th-B(IIIB).
The mark [10] stands for this setting: chimpanzee 1070 serum, Month 19, prior F-Th-B(IIIB).
The mark [11] stands for this setting: chimpanzee 1070 serum, Month 20, prior F-Th-B(IIIB).

In the case of “KQIINMWQEVGKAMYACTRPNNNTRKSIRIQRGPG [Peptide T1-SP10IIIB, HIVIIIB Th-B peptide]”, in assay [1], the “immunogenicity in chimpanzees (antibody response)” value is “potent immunogens”. Also, in [2], the “PBMC proliferation to T1-SP10IIIB(A) peptide” value was “induced high levels of proliferation”. Besides, the “induction of serum anti-HIV neutralizing antibodies” value in the assay with HIVIIIB is “induced anti-HIV neutralizing antibodies in goats”.
For the sequence “KQIINMWQEVGKAMYACTRPNYNKRKRIHIGPGRAFYTTK [T1-SP10MN(A), HIVMN Th-B peptide]”, the “Reciprocal of ELISA Titer” value was 12,800 in assay [1] (chimpanzee 884, month 17, after Th-B(IIIB) months 2-14); 25,600 in assay [1] (chimpanzee 884, month 18, after Th-B(IIIB) months 2-14); 25,600 in assay [1] (chimpanzee 884, month 19, after Th-B(IIIB) months 2-14); 51,200 in assay [1] (chimpanzee 884, month 20, after Th-B(IIIB) months 2-14); 3,200 in [1] (chimpanzee 1028, month 17, after Th-B(IIIB) months 2-14, injections in PBS alone); 6,400 in [1] (chimpanzee 1028, month 18, after Th-B(IIIB) months 2-14, injections in PBS alone). In addition, the “Reciprocal of ELISA Titer” value in assay [1] (chimpanzee 1028, month 19, after Th-B(IIIB) months 2-14, injections in PBS alone) is reported as 1,600; in assay [1] (chimpanzee 1028, month 20, after Th-B(IIIB) months 2-14, injections in PBS alone), 6,400; in [1] (chimpanzee 1045, month 17, after F-Th-B(IIIB) months 2-14 and Th-B(IIIB) month 16), 1,600; in [1] (chimpanzee 1045, month 18, after F-Th-B(IIIB) months 2-14 and Th-B(IIIB) month 16), 6,400; in [1] (chimpanzee 1045, month 19, after F-Th-B(IIIB) months 2-14 and Th-B(IIIB) month 16) it was 6,400; in assay [1] (chimpanzee 1045, month 20, after F-Th-B(IIIB) months 2-14 and Th-B(IIIB) month 16), 51,200. The “Reciprocal of ELISA Titer” value in assay [1] (chimpanzee 1070, month 17, after F-Th-B(IIIB) months 2-14 and Th-B(IIIB) month 16) was 3,200; in [1] (chimpanzee 1070, month 18, after F-Th-B(IIIB) months 2-14 and Th-B(IIIB) month 16), 25,600; in assay [1] (chimpanzee 1070, month 19, after F-Th-B(IIIB) months 2-14 and Th-B(IIIB) month 16), 51,200; in assay [1] (chimpanzee 1070, month 20 (month 20 immunization not given), after F-Th-B(IIIB) months 2-14 and Th-B(IIIB) month 16), 102,400#. For the same sequence, the “Presence of Neutralization in Syncytium Inhibition Assay” value was “+/− (≧49% and <80% inhibition of syncytia.)” in the assay with HIV LAI/IIIB [3] (setting [7]); “− (<48% inhibition of syncytia.)” in the assay on HIV LAI/IIIB [3] (setting [8]); “+/− (≧49% and <80% inhibition of syncytia.)” in the assay on HIV LAI/IIIB [3] (setting [9]); “+ (≧80% inhibition of syncytia, titer 1:10.)” in the assay with HIV LAI/IIIB [3] (setting [10]); “+/− (≧49% and <80% inhibition of syncytia.)” with HIV LAI/IIIB [3] (setting [11]); “− (<48% inhibition of syncytia.)” in the assay with HIV MN [4] (chimpanzee 1045 serum, Month 18, prior F-Th-B(IIIB)). For the same sequence, the “Presence of Neutralization in Syncytium Inhibition Assay” value with HIV MN [4] (setting [7]) is on record as “− (<48% inhibition of syncytia.)”; in the assay with HIV MN [4] (setting [8]) it was “− (<48% inhibition of syncytia.)”; with HIV MN [4] (setting [9]), “− (<48% inhibition of syncytia.)”; in the assay on HIV MN [4] (setting [10]), “+ (≧80% inhibition of syncytia, titer 1:10.)”; in the assay on HIV MN [4] (setting [11]), “++ (≧80% inhibition of syncytia, titer 1:20.)”. The “Reciprocal Titer in RT Inhibition Assay” value in the assay with HIV LAI/IIIB [5] (setting [7]) was 23; with HIV LAI/IIIB [5] (setting [8]), 22; with HIV LAI/IIIB [5] (setting [9]), 92; in the assay with HIV LAI/IIIB [5] (setting [10]), 100; in the assay with HIV LAI/IIIB [5] (setting [11]), 86; in the assay with HIV MN [6] (chimpanzee 884 serum, Month 18, prior Th-B(IIIB)), 20. Moreover, the “Reciprocal Titer in RT Inhibition Assay” value in the assay with HIV MN [6] (chimpanzee 884 serum, Month 20, prior Th-B(IIIB)) was determined as 24; in the assay on HIV MN [6] (chimpanzee 1045 serum, Month 18, prior F-Th-B(IIIB), Th-B(IIIB)), 23; in the assay on HIV MN [6] (chimpanzee 1045 serum, Month 19, prior F-Th-B(IIIB), Th-B(IIIB)), 23; in the assay on HIV MN [6] (chimpanzee 1045 serum, Month 20, prior F-Th-B(IIIB), Th-B(IIIB)), 24; with HIV MN [6] (chimpanzee 1070 serum, Month 18, prior F-Th-B(IIIB), Th-B(IIIB)), 22; in the assay with HIV MN [6] (chimpanzee 1070 serum, Month 19, prior F-Th-B(IIIB), Th-B(IIIB)), 96. Also, in the assay on HIV MN [6] (chimpanzee 1070 serum, Month 20, prior F-Th-B(IIIB), Th-B(IIIB)), the “Reciprocal Titer in RT Inhibition Assay” value is reported as 350. The “detection of peptide inside the JY B cells” value with JY B cells (10 ug/ml of peptide for 21 hours at 37 degrees C) was “could not be detected”.
As for “KQIINMWQEVGKAMYACTRPNNNTRKSIRIQRGPGRAFVTI [T1-SP10IIIB(A), HIVIIIB Th-B peptide with (A) region]”, in assay [1], the “immunogenicity in chimpanzees (antibody response)” value was “potent immunogens”. Besides, in [2], the “PBMC proliferation to T1-SP10IIIB(A) peptide” value is given as “induced high levels of proliferation”. The “MFC 4 Degrees C., 1 Hr.” value against human JY B cells (4 degrees C, 1 hour) is reported as 14.7. Further, the “MFC 37 Degrees C., 22 Hr.” value with human JY B cells (37 degrees C, 22 Hr.) is reported as 14.0. Moreover, the “% Intracytoplasmic Positive” value in the assay on JY B cells (Anti-gp120 mab 0.5beta) and in the assay with JY B cells (Control antibody (mab P3x63 AgS)) was 0% each time.
